Source: patent US20220047589A1, “PDE9 INHIBITORS FOR TREATING THALASSEMIA” (Imara Inc., priority 2019, published 2022)
“Also recorded” adds a separate entry of the source.

Tests used:
[1] = Effect of food on adverse event profile on once-daily administration to patients; assay type: in vivo; settings: once a day with food
Protocol: In some embodiments, Compound 1, or a pharmaceutically acceptable salt, solvate, or polymorph thereof is administered to a patient, wherein Compound 1, or a pharmaceutically acceptable salt, solvate, or polymorph thereof is administered once a day with food. […] The incidence and severity of the side effects, such as nausea, emesis and headache, can be reduced when Compound 1, or a pharmaceutically acceptable salt, solvate, or polymorph thereof is taken with food.

Hbb^th1 mice [2] = test: In vivo study in Hbb^th1 thalassemia mice: blood Hb and RBC levels; set-up: species or system mouse
Protocol: (§1) This model was used to evaluate the effect of Compound 1 to treat thalassemia.
(§2) Hbb^th1 mice were given Compound 1 dissolved in 10:90 DMSO:corn oil once daily, by oral gavage, at either a high dose (60 mg/kg) or a low dose (30 mg/kg). A normal (C57BL/6) mouse was included as a control in the study to establish baselines along with a Hbb^th1 vehicle mouse not given Compound 1. Animals were observed once daily for morbidity and mortality. Mice were not allowed to recover from anesthesia and were killed by cervical dislocation while still anesthetized. Necropsy was limited to removal and weighing of the spleen for further analysis.
Blood was collected on day 30, from the retroorbital sinus of all mice, while mice were under isoflurane anesthesia, using heparin capillaries and EDTA-coated tubes. Parameters measured were: Hb levels and RBC levels.

Hbb^th1 mice [3] = test: Erythroblast differentiation (RBC maturation) in spleen cells of treated Hbb^th1 mice by flow cytometry; assay type: in vivo, mouse; settings: 30 or 60 mg/kg once daily by oral gavage
Protocol: as §1, §2
RBC maturation is a key mechanistic component in reducing pathology of thalassemia. Therefore, immature RBC (Ery.B: late basophilic and polychromatic) percentage, mature RBC (Ery.C: ortochromatic and reticulocytes) percentage, and maturation index were also measured. […] Cells were further analyzed by flow cytometry (Gallios, Beckman) using FlowJo software v.10.1 (FlowJo, LLC). Results were expressed as the percentage of Ery.B (Live-Dead^neg, Ter-119^pos, CD71^pos, FSC^low) or Ery.C (Live-Dead^neg, Ter-119^pos, CD71^neg, FSC^low) populations. Maturation index was calculated as Ery.B/Ery.C ratio.

SMILES: C[C@@H]1CN(Cc2ncccn2)C[C@H]1c1cn2c(C3CCOCC3)ncc2c(=O)[nH]1 [Compound 1, 6-[(3S,4S)-4-methyl-1-(pyrimidin-2-ylmethyl)pyrrolidin-3-yl]-3-tetrahydropyran-4-yl-7H-imidazo[1,5-a]pyrazin-8-one]
- adverse event profile (nausea, emesis, headache) when taken with food [1]: food reduce the adverse event profile dramatically
- Hb levels (total Hb amount) (Hbb^th1 mice [2]; 30 or 60 mg/kg once daily by oral gavage, blood on day 30, FIG. 1A): increase Hb levels; also recorded: increases the total Hb amount
- RBC levels (RBC amount) (Hbb^th1 mice [2]; 30 or 60 mg/kg once daily by oral gavage, blood on day 30, FIG. 1B): increased RBC levels; also recorded: increases
- increase of total Hb vs. control groups (Hbb^th1 mice [2]; high dose (60 mg/kg), once daily by oral gavage, blood collected on day 30): 1.3 g/dL
- immature RBC (Ery.B) percentage (Hbb^th1 mice [3]; FIG. 2A): reduces immature RBC cell percentages; also recorded: reduces immature RBC levels
- mature RBC (Ery.C) percentage (Hbb^th1 mice [3]; FIG. 2B): increases mature RBC cell percentages; also recorded: increases mature RBC levels
